Results: ChEMBL document CHEMBL1201862, “PubChem BioAssay data set” (2004)
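Test compounds were applied to cells in 96-well plates for 48 hours at 5 doses. GI50 marks 50% less growth.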 The source made the active and inactive calls. No stated cut-off is given here; in the data, active = GI50 up to about 1.1 µM and inactive = higher.

Experiments:
Test in all cases: NCI-60 cell line screen, 48 h
IGROV-1 = system: IGROV-1
HT-29 = system: HT-29
HL-60 = system: HL-60
KM-20L2 = system: KM-20L2
MOLT-4 = system: MOLT-4
SNB-78 = system: SNB-78
CAKI-1 = system: CAKI-1
DLD-1 = system: DLD-1
CCRF-CEM = system: CCRF-CEM
HCC 2998 = system: HCC 2998
EKVX = system: EKVX
NCI-H226 = system: NCI-H226
A549 = system: A549
UO-31 = system: UO-31
DMS-273 = system: DMS-273
SR = system: SR
NCI-H23 = system: NCI-H23
RPMI-8226 = system: RPMI-8226
LXFL 529 = system: LXFL 529
COLO 205 = system: COLO 205
SN12C = system: SN12C
SK-MEL-5 = system: SK-MEL-5
HCT-116 = system: HCT-116
DMS-114 = system: DMS-114
OVCAR-5 = system: OVCAR-5
Malme-3M = system: Malme-3M
NCI-H460 = system: NCI-H460
SNB-19 = system: SNB-19
OVCAR-4 = system: OVCAR-4
M19-MEL = system: M19-MEL
RXF 393 = system: RXF 393
SF-539 = system: SF-539
SNB-75 = system: SNB-75
M14 = system: M14
OVCAR-8 = system: OVCAR-8
UACC-62 = system: UACC-62
HCT-15 = system: HCT-15
HOP-92 = system: HOP-92
U-251 = system: U-251
LOX IMVI = system: LOX IMVI
NCI-H522 = system: NCI-H522
K562 = system: K562
OVCAR-3 = system: OVCAR-3
XF498 = system: XF498
SK-OV-3 = system: SK-OV-3
786-0 = system: 786-0
UACC-257 = system: UACC-257
SF-295 = system: SF-295
HOP-62 = system: HOP-62
A498 = system: A498
KM12 = system: KM12
TK-10 = system: TK-10
SF-268 = system: SF-268
SW-620 = system: SW-620
SK-MEL-28 = system: SK-MEL-28
ACHN = system: ACHN
HOP-18 = system: HOP-18
SK-MEL-2 = system: SK-MEL-2

C=CCN1C(=O)C(=O)N(CC=C)C(=O)C1=O
GI50 (IGROV-1): > 100 µM (inactive)
GI50 (HT-29): > 100 µM (inactive)
GI50 (HL-60): > 100 µM (inactive)
GI50 (KM-20L2): > 100 µM (inactive)
GI50 (MOLT-4): > 100 µM (inactive)
GI50 (SNB-78): > 100 µM (inactive)
GI50 (CAKI-1): > 100 µM (inactive)
GI50 (DLD-1): > 100 µM (inactive)
GI50 (CCRF-CEM): > 100 µM (inactive)
GI50 (HCC 2998): > 100 µM (inactive)
GI50 (EKVX): > 100 µM (inactive)
GI50 (NCI-H226): > 100 µM (inactive)
GI50 (A549): > 100 µM (inactive)
GI50 (UO-31): > 100 µM (inactive)
GI50 (DMS-273): > 100 µM (inactive)
GI50 (SR): > 100 µM (inactive)
GI50 (NCI-H23): > 100 µM (inactive)
GI50 (RPMI-8226): > 100 µM (inactive)
GI50 (LXFL 529): > 100 µM (inactive)
GI50 (COLO 205): > 100 µM (inactive)
GI50 (SN12C): > 100 µM (inactive)
GI50 (SK-MEL-5): > 100 µM (inactive)
GI50 (HCT-116): > 100 µM (inactive)
GI50 (DMS-114): > 100 µM (inactive)
GI50 (OVCAR-5): > 100 µM (inactive)
GI50 (Malme-3M): > 100 µM (inactive)
GI50 (NCI-H460): > 100 µM (inactive)
GI50 (SNB-19): > 100 µM (inactive)
GI50 (OVCAR-4): > 100 µM (inactive)
GI50 (M19-MEL): > 100 µM (inactive)
GI50 (RXF 393): > 100 µM (inactive)
GI50 (SF-539): > 100 µM (inactive)
GI50 (SNB-75): > 100 µM (inactive)
GI50 (M14): > 100 µM (inactive)
GI50 (OVCAR-8): > 100 µM (inactive)
GI50 (UACC-62): > 100 µM (inactive)
GI50 (HCT-15): > 100 µM
GI50 (HOP-92): > 100 µM (inactive)
GI50 (U-251): > 100 µM (inactive)
GI50 (LOX IMVI): > 100 µM (inactive)
GI50 (NCI-H522): > 100 µM (inactive)
GI50 (K562): > 100 µM (inactive)
GI50 (OVCAR-3): > 100 µM (inactive)
GI50 (XF498): > 100 µM (inactive)
GI50 (SK-OV-3): > 100 µM (inactive)
GI50 (786-0): > 100 µM (inactive)
GI50 (UACC-257): > 100 µM (inactive)
GI50 (SF-295): > 100 µM (inactive)
GI50 (HOP-62): > 100 µM (inactive)
GI50 (A498): > 100 µM (inactive)
GI50 (KM12): > 100 µM (inactive)
GI50 (TK-10): > 100 µM (inactive)
GI50 (SF-268): > 100 µM (inactive)
GI50 (SW-620): > 100 µM (inactive)

CCCCCCCCCCCC(=O)CC(=O)c1c(O)cccc1O
GI50 (IGROV-1): 18.6 µM (inactive)
GI50 (HT-29): 17.5 µM (inactive)
GI50 (HL-60): 34.9 µM (inactive)
GI50 (KM-20L2): 20.5 µM (inactive)
GI50 (MOLT-4): 19.7 µM (inactive)
GI50 (SNB-78): 19.3 µM (inactive)
GI50 (CAKI-1): > 10 µM (inactive)
GI50 (SK-MEL-28): 21.4 µM (inactive)
GI50 (DLD-1): 17.7 µM (inactive)
GI50 (ACHN): 19.2 µM (inactive)
GI50 (CCRF-CEM): > 100 µM (inactive)
GI50 (HCC 2998): 29 µM (inactive)
GI50 (EKVX): 17.8 µM (inactive)
GI50 (NCI-H226): 16.7 µM (inactive)
GI50 (A549): 17.9 µM (inactive)
GI50 (UO-31): 14.5 µM (inactive)
GI50 (DMS-273): 18.4 µM (inactive)
GI50 (SR): 19.4 µM (inactive)
GI50 (NCI-H23): 19.6 µM (inactive)
GI50 (RPMI-8226): 19.6 µM (inactive)
GI50 (LXFL 529): 18.2 µM (inactive)
GI50 (COLO 205): 17.3 µM (inactive)
GI50 (SN12C): 18.7 µM (inactive)
GI50 (SK-MEL-5): 19.1 µM (inactive)
GI50 (HCT-116): 16.6 µM (inactive)
GI50 (DMS-114): 18.8 µM (inactive)
GI50 (OVCAR-5): 15.5 µM (inactive)
GI50 (Malme-3M): 15.5 µM (inactive)
GI50 (NCI-H460): 19 µM (inactive)
GI50 (SNB-19): 20 µM (inactive)
GI50 (HOP-18): 16.4 µM (inactive)
GI50 (OVCAR-4): 17.3 µM (inactive)
GI50 (SK-MEL-2): 14.1 µM (inactive)
GI50 (M19-MEL): 18.3 µM (inactive)
GI50 (RXF 393): 17.7 µM (inactive)
GI50 (SF-539): 18.5 µM (inactive)
GI50 (SNB-75): 19.4 µM (inactive)
GI50 (M14): 18 µM (inactive)
GI50 (OVCAR-8): 16.6 µM (inactive)
GI50 (UACC-62): 29.4 µM (inactive)
GI50 (HCT-15): 22.6 µM
GI50 (HOP-92): 20.4 µM (inactive)
GI50 (U-251): 17.7 µM (inactive)
GI50 (LOX IMVI): 17.4 µM (inactive)
GI50 (NCI-H522): 22.2 µM (inactive)
GI50 (K562): 26.9 µM (inactive)
GI50 (OVCAR-3): 19.8 µM (inactive)
GI50 (XF498): 18.5 µM (inactive)
GI50 (SK-OV-3): 30.4 µM (inactive)
GI50 (786-0): 23.3 µM (inactive)
GI50 (UACC-257): 17.5 µM (inactive)
GI50 (SF-295): 19.4 µM (inactive)
GI50 (HOP-62): 23.7 µM (inactive)
GI50 (KM12): 17.5 µM (inactive)
GI50 (TK-10): 24.9 µM (inactive)
GI50 (SF-268): 16.4 µM (inactive)
GI50 (SW-620): 17.1 µM (inactive)

O=C(NC(=S)Nc1ccccc1)c1ccc([N+](=O)[O-])cc1
GI50 (IGROV-1): 71.9 µM (inactive)
GI50 (HT-29): 80.9 µM (inactive)
GI50 (HL-60): 36.8 µM (inactive)
GI50 (KM-20L2): > 100 µM (inactive)
GI50 (MOLT-4): 71.8 µM (inactive)
GI50 (SNB-78): > 100 µM (inactive)
GI50 (CAKI-1): 73.8 µM (inactive)
GI50 (SK-MEL-28): > 100 µM (inactive)
GI50 (DLD-1): 47.9 µM (inactive)
GI50 (ACHN): 83.9 µM (inactive)
GI50 (CCRF-CEM): 31.3 µM (inactive)
GI50 (HCC 2998): > 100 µM (inactive)
GI50 (EKVX): > 100 µM (inactive)
GI50 (A549): 41.9 µM (inactive)
GI50 (UO-31): 45.8 µM (inactive)
GI50 (DMS-273): 60.3 µM (inactive)
GI50 (NCI-H23): 4.8 µM (inactive)
GI50 (RPMI-8226): 28.6 µM (inactive)
GI50 (LXFL 529): > 100 µM (inactive)
GI50 (COLO 205): 47.3 µM (inactive)
GI50 (SN12C): > 100 µM (inactive)
GI50 (SK-MEL-5): 36 µM (inactive)
GI50 (HCT-116): > 100 µM (inactive)
GI50 (DMS-114): 17.5 µM (inactive)
GI50 (OVCAR-5): 2.28 µM (inactive)
GI50 (Malme-3M): > 100 µM (inactive)
GI50 (NCI-H460): 37.1 µM (inactive)
GI50 (HOP-18): > 100 µM (inactive)
GI50 (OVCAR-4): 3.4 µM (inactive)
GI50 (M19-MEL): > 100 µM (inactive)
GI50 (SNB-75): > 100 µM (inactive)
GI50 (M14): > 100 µM (inactive)
GI50 (OVCAR-8): > 100 µM (inactive)
GI50 (UACC-62): 75.7 µM (inactive)
GI50 (HCT-15): 38.5 µM
GI50 (HOP-92): 35.9 µM (inactive)
GI50 (LOX IMVI): 84.1 µM (inactive)
GI50 (NCI-H522): 18.3 µM (inactive)
GI50 (K562): 52 µM (inactive)
GI50 (OVCAR-3): 92.5 µM (inactive)
GI50 (XF498): > 100 µM (inactive)
GI50 (SK-OV-3): 50.1 µM (inactive)
GI50 (786-0): > 100 µM (inactive)
GI50 (UACC-257): 60.3 µM (inactive)
GI50 (SF-295): 45.1 µM (inactive)
GI50 (HOP-62): > 100 µM (inactive)
GI50 (KM12): 3.46 µM (inactive)
GI50 (TK-10): > 100 µM (inactive)
GI50 (SF-268): > 100 µM (inactive)
GI50 (SW-620): > 100 µM (inactive)
